Laboratory results taken from US8022072B2, “Azolylmethylidenehydrazine derivative and use thereof” (Kaken Pharmaceutical Co., Ltd., priority 2007, dated 2011).

Assays:
TNCB-induced dermatitis = assay: 2,4,6-Trinitrochlorobenzene (TNCB)-induced dermatitis model, ear edema; assay type: in vivo, male BALB/c mouse; details: test compound 1 w/v % (FK506 0.1 w/v %), 20 μL applied to auricle, 24 hours after induction
Procedure: (§1) The test compound was adjusted to 1 w/v % when in use with a solvent (acetone:olive oil=1:1, v/v)) and put to use. FK506 (control substance) was adjusted to 0.1 w/v % and used.
The fur on the abdomen of male BALB/c mouse was shaved with a hair clipper, and 100 μL of 7 w/v % TNCB sensitizing liquid (solvent was acetone:olive oil=4:1, v/v) was applied. Six days after the sensitization, the thickness of the right auricle was measured with a micrometer (pre-value). After the measurement, 10 μL of 1 w/v % TNCB challenge liquid (solvent was acetone:olive oil=1:9, v/v) was applied to the inside of the right auricle to induce ear edema. About 5 minutes after the application of the challenge liquid, 20 μL of the test compound was applied to the outside of the auricle.
After 24 hours from the induction of ear edema, the thickness of the right auricle was measured by a method similar to the pre-value (post-value). The difference between the post-value and the pre-value of ear edema by each test compound was determined, based on which the inhibition rate was calculated. The activity of each test compound was calculated with the ear edema inhibition rate of FK506 as 1.0 (ear edema inhibition rate of each test compound/ear edema inhibition rate of FK506).

OVA-induced dermatitis = assay: Ovalbumin (OVA)-induced dermatitis model, ear edema; assay type: in vivo, male ICR mouse; design: key: ratio of compound's ear edema inhibition rate to FK506's (FK506 = 1.0); details: test compound 1 w/v % (FK506 0.1 w/v %), 20 μL applied to auricle, 24 hours after induction
Procedure: as §1
Male ICR mouse was sensitized by the administration of 0.2 mL of OVA-hydroxide aluminum gel suspension to the abdominal cavity. After 14 days from the sensitization, the thickness of the right auricle was measured with a micrometer (pre-value). After the measurement, 20 μL of 0.5 μg/mL OVA challenge liquid (solvent was physiological saline) was subcutaneously administered to the inside of the auricle to induce ear edema. About 5 minutes after the administration of the challenge liquid, 20 μL of the test compound was applied to the outside of the auricle. After 24 hours from the induction of ear edema, the thickness of the right auricle was measured by a method similar to the pre-value (post-value). The difference between the post-value and the pre-value of ear edema by each test compound was determined, based on which the inhibition rate was calculated. The activity of each test compound was calculated with the ear edema inhibition rate of FK506 as 1.0 (ear edema inhibition rate of each test compound/ear edema inhibition rate of FK506).

Row | SMILES | TNCB-induced dermatitis, with ear edema inhibition rate of FK506 as 1.0 (TNCB-induced dermatitis) | OVA-induced dermatitis, with ear edema inhibition rate of FK506 as 1.0 (OVA-induced dermatitis)
1 | CCCCCCc1ccccc1C(=NN(C)C)n1ccnc1 [Compound No. 5, N′-[1-(2-hexylphenyl)-1-imidazol-1-ylmethylidene]-N,N-dimethylhydrazine] | 0.6 | 1.2
2 | CCCCCOc1ccccc1C(=NN(C)C)n1ccnc1 [Compound No. 24, N′-[1-imidazol-1-yl-1-(2-pentyloxyphenyl)methylidene]-N,N-dimethylhydrazine] | 0.5 | 0.9
3 | CN(C)N=C(c1ccccc1OCc1ccc(F)cc1)n1ccnc1 [Compound No. 35, N′-[1-[2-(4-fluorobenzyloxy)phenyl]-1-imidazol-1-ylmethylidene]-N,N-dimethylhydrazine] | 0.6 | 0.9
4 | CN(C)N=C(c1ccccc1OCc1ccc(Cl)cc1)n1ccnc1 [Compound No. 38, N′-[1-[2-(4-chlorobenzyloxy)phenyl]-1-imidazol-1-ylmethylidene]-N,N-dimethylhydrazine] | 0.7 | 1.1
5 | CN(C)N=C(c1ccccc1OCc1cccc(Cl)c1)n1ccnc1 [Compound No. 40, N′-[1-[2-(3-chlorobenzyloxy)phenyl]-1-imidazol-1-ylmethylidene]-N,N-dimethylhydrazine] | 0.7 | 1.0
6 | CCc1ccc(COc2ccccc2C(=NN(C)C)n2ccnc2)cc1 [Compound No. 48, N′-[1-[2-(4-ethylbenzyloxy)phenyl]-1-imidazol-1-ylmethylidene]-N,N-dimethylhydrazine] | 0.5 | 1.0
7 | CN(C)N=C(c1ccccc1OCCc1ccccc1)n1ccnc1 [Compound No. 56, N′-[1-imidazol-1-yl-1-(2-phenethoxyphenyl)methylidene]-N,N-dimethylhydrazine] | 0.7 | 1.2
8 | CN(C)N=C(c1ccccc1OCCc1ccc(F)cc1)n1ccnc1 [Compound No. 57, N′-[1-[2-[2-(4-fluorophenyl)ethoxy]phenyl]-1-imidazol-1-ylmethylidene]-N,N-dimethylhydrazine] | 0.8 | 1.8
9 | COc1ccc(CCOc2ccccc2C(=NN(C)C)n2ccnc2)cc1 [Compound No. 58, N′-[1-imidazol-1-yl-1-[2-[2-(4-methoxyphenyl)ethoxy]phenyl]methylidene]-N,N-dimethylhydrazine] | 0.9 | 1.0
10 | CN(C)N=C(c1ccccc1OCC1COc2ccccc2O1)n1ccnc1 (stereo not drawn) [Compound No. 73, N′-[1-[2-(2,3-dihydrobenzo[1,4]dioxin-2-ylmethoxy)phenyl]-1-imidazol-1-ylmethylidene]-N,N-dimethylhydrazine] | 0.7 | 1.1
11 | CN(C)N=C(c1ccccc1SCCc1ccccc1)n1ccnc1 [Compound No. 84, N′-[1-imidazol-1-yl-1-(2-phenethylthiophenyl)methylidene]-N,N-dimethylhydrazine] | 0.9 | 1.4
12 | CN(C)N=C(c1cccn1CCCOc1ccccc1)n1ccnc1 [Compound No. 108, N′-[1-imidazol-1-yl-1-[1-(3-phenoxypropyl)pyrrol-2-yl]methylidene]-N,N-dimethylhydrazine] | 0.9 | 1.4
13 | CCN(C)N=C(c1ccccc1OCc1ccc(F)cc1)n1ccnc1 [Compound No. 113, N-ethyl-N′-[1-[2-(4-fluorobenzyloxy)phenyl]-1-imidazol-1-ylmethylidene]-N-methylhydrazine] | 0.6 | 1.7
14 | CCN(C)N=C(c1ccccc1OCCCOc1ccccc1)n1ccnc1 [Compound No. 115, N-ethyl-N′-[1-imidazol-1-yl-1-[2-(3-phenoxypropoxy)phenyl]methylidene]-N-methylhydrazine] | 0.7 | 1.4
15 | CCN(C)N=C(c1ccccc1OCCCCOc1ccccc1)n1ccnc1 [Compound No. 116, N-ethyl-N′-[1-imidazol-1-yl-1-[2-(4-phenoxybutoxy)phenyl]methylidene]-N-methylhydrazine] | 0.7 | 1.1
16 | CCN(CC)N=C(c1ccccc1OCCOc1ccccc1)n1ccnc1 [Compound No. 119, N,N-diethyl-N′-[1-imidazol-1-yl-1-[2-(2-phenoxyethoxy)phenyl]methylidene]hydrazine] | 0.9 | 1.1
17 | c1ccc(OCCOc2ccccc2C(=NN2CCCCC2)n2ccnc2)cc1 [Compound No. 175, [1-imidazol-1-yl-1-[2-(2-phenoxyethoxy)phenyl]methylidene]piperidin-1-ylamine] | 0.6 | 1.4
18 | CCOc1ccccc1C(=NN1CCCCCC1)n1ccnc1 [Compound No. 197, [1-(2-ethoxyphenyl)-1-imidazol-1-ylmethylidene]homopiperidin-1-ylamine] | 0.7 | 1.1
19 | CCCCOc1ccccc1C(=NN1CCCCCC1)n1ccnc1 [Compound No. 202, [1-(2-butoxyphenyl)-1-imidazol-1-ylmethylidene]homopiperidin-1-ylamine] | 0.7 | 1.0
20 | CCCCCOc1ccccc1C(=NN1CCCCCC1)n1ccnc1 [Compound No. 203, homopiperidin-1-yl-[1-imidazol-1-yl-1-(2-pentyloxyphenyl)methylidene]amine] | 0.9 | 1.0
21 | c1ccc(OCCOc2ccccc2C(=NN2CCCCCC2)n2ccnc2)cc1 [Compound No. 215, homopiperidin-1-yl-[1-imidazol-1-yl-1-[2-(2-phenoxyethoxy)phenyl]methylidene]amine] | 0.8 | 1.2
22 | c1ccc(OCCCOc2ccccc2C(=NN2CCCCCC2)n2ccnc2)cc1 [Compound No. 216, homopiperidin-1-yl-[1-imidazol-1-yl-1-[2-(3-phenoxypropoxy)phenyl]methylidene]amine] | 0.5 | 1.5
23 | FC(F)(F)Oc1ccccc1C(=NN1CCCCCC1)n1ccnc1 [Compound No. 219, homopiperidin-1-yl-[1-imidazol-1-yl-1-(2-trifluoromethoxyphenyl)methylidene]amine] | 0.6 | 1.1
24 | CCSc1ccccc1C(=NN1CCCCCC1)n1ccnc1 [Compound No. 220, [1-(2-ethylthiophenyl)-1-imidazol-1-ylmethylidene]homopiperidin-1-ylamine] | 0.5 | 1.1
